Measured values as given in US20120101077A1, “AGGLOMERATE FORMULATIONS USEFUL IN DRY POWDER INHALERS” (Schering Corporation, priority 2009, published 2012).
Read-outs that look alike come from different tables or passages of the source.

Assays:
[1] = Particle size of micronized materials by HELOS laser diffraction; type: physicochemical; conditions: jet-milled micronized material
Protocol: Micronization of the drug and lactose were performed in-house using a jet-mill (Micron Master, The Jet Pulverizer Co., Inc, Moorestown, N.J.). […] Particle size measurements of the micronized materials were performed using a HELOS® (Sympatec Inc., Clausthal-Zellerfeld, Germany) laser diffraction system.

[2] = cited from earlier work
[3] = cited from earlier work; remark: listed apart in the source
[4] = Specific surface area of additional functional excipients; type: physicochemical

Molecule | average particle size (DV50) [1] [μm] | solubility ([2]; in acetone) | solubility ([2]; in chloroform) | solubility ([2]; in ethanol) | solubility ([2]; in isopropanol) | solubility ([2]; in methanol) | solubility ([2]; in tetrahydrofuran) | solubility ([2]; in water) | partition coefficient between octanol and water [3] | specific surface area [4] [m^2/g]
C[C@@H]1C[C@H]2[C@@H]3CCC4=CC(=O)C=C[C@]4(C)[C@@]3(Cl)[C@@H](O)C[C@]2(C)[C@@]1(OC(=O)c1ccco1)C(=O)CCl [Mometasone furoate, 9,21-Dichloro-11(beta), 17-dihydroxy-16(alpha)-methylpregna-1,4-diene-3,20-dione 17-(2 furoate)] | 1.1 | soluble | soluble | slightly soluble | slightly soluble | slightly soluble | freely soluble | practically insoluble | greater than 5000 | 
OC[C@H]1O[C@@H](O[C@H]2[C@H](O)[C@@H](O)[C@@H](O)O[C@@H]2CO)[C@H](O)[C@@H](O)[C@H]1O [micronized lactose, lactose anhydrous, NF] | 2.0 |  |  |  |  |  |  |  |  | 
magnesium stearate |  |  |  |  |  |  |  |  |  | 8
